Laboratory results as given in patent publication US12114689B2 (NICOVENTURES TRADING LIMITED, priority 2018, dated 2024).

Assays:
[1] = cited from earlier work
[2] = binding energy with the cyclodextrin host; conditions: such as (2-Hydroxypropyl)-β-cyclodextrin
Description: The flavor components should be added last; this is due to the generally higher binding energy (vs. nicotine) with the cyclodextrin host. […] For menthol example, the approximate binding energies are −4.13 Kcal·mol^−1 (nicotine) and −5.06 Kcal·mol^−1 (menthol). […] Microfiltration may then be performed, in this case, to remove any excess menthol which has not formed a complex with cyclodextrin.

Compound	solubility in water compared to base cyclodextrins such as β-cyclodextrin [1]	approximate binding energy with the cyclodextrin host [2] [kcal/mol]
2-hydroxy-propyl-β-cyclodextrin [2-hydroxy-propyl-O-cyclodextrin]	increased solubility in water	
CN1CCC[C@H]1c1cccnc1 (stereo in doubt) [Nicotine, 3-(1-methylpyrrolidin-2-yl) pyridine]		~-4.13
CC1CCC(C(C)C)C(O)C1 (stereo not drawn) [menthol]		~-5.06
